Laboratory results published in patent EP0598515A1, “Method for herbicidal activity-enhancing, activity-enhanced herbicidal composition and activity-enhancing composition” (ISHIHARA SANGYO KAISHA LTD., priority 1992, dated 1994).
Where two headings read alike, the source gives them in different places.

Tests used:
Assay in all cases: Test Example 13: field plot test, growth inhibition
Format in all cases: in vivo
[1] = system: Common lambsquarters (Chenopodium album L.); details: 648 h, Example 8 suspension concentrate, 27 days after treatment, field plots, read-out: Growth Inhibition (%) CA; for inhibition at 30 g/ha: Compound A 30 g/ha; for inhibition at 40 g/ha: Compound A 40 g/ha
Excerpt: (§1) In field plots of 4 m² (1 m × 4 m) unit arranged in a duplicate system, seeds of corn, crabgrass (Digitaria sanguinalis L.) common lambsquarters (Chenopodium album L.), slender amaranth (Amaranthus viridis L.), velvetleaf (Abutilon theophrasti MEDIC.) and common cocklebur (Xanthium strumarium L.) were sown and grown. Also, green foxtail (Setaria viridis L.) and barnyardgrass (Echinochloa crus-galli L.) were allowed to grow spontaneously. When the plants grew to certain stages (corn: 4.2 to 6.0-leaf stage, crabgrass: 3.2 to 5.0-leaf stage, common lambsquarters: 3.0 to 6.0-leaf stage, slender amaranth: 2.0 to 5.0-leaf stage, velvetleaf: 1.5 to 4.0-leaf stage, common cocklebur: cotyledonal to 3.5-leaf stage, green foxtail: 3.0 to 5.0-leaf stage and barnyardgrass: 3.0 to 5.0-leaf stage), the oil-based suspension concentrate obtained in Example 8 was diluted with 200 liters/hectare of water containing a predetermined amount of Frigate and was applied foliarly to the plants with a small spray gun.
(§2) Twenty seven days after treatment, the growth inhibition of plants except for corn plants was evaluated with visual observation in the same manner as in Test Example 1 and are shown in Table 13.

[2] = system: Velvetleaf (Abutilon theophrasti MEDIC.); details: 648 h, Example 8 suspension concentrate, 27 days after treatment, field plots; for inhibition at 30 g/ha: Compound A 30 g/ha; for inhibition at 40 g/ha: Compound A 40 g/ha
Excerpt: as §1, §2

[3] = system: barnyardgrass (Echinochloa crus-galli L.); details: Example 8 suspension concentrate, 27 days after treatment, field plots; for inhibition at 30 g/ha: Compound A 30 g/ha
Excerpt: as §1, §2

[4] = system: slender amaranth (Amaranthus viridis L.); details: 648 h, Example 8 suspension concentrate, 27 days after treatment, field plots, read-out: Growth Inhibition (%) AV; for inhibition at 30 g/ha: Compound A 30 g/ha; for inhibition at 40 g/ha: Compound A 40 g/ha
Excerpt: as §1, §2

[5] = Frigate: No addition, Compound A 50 g/ha
[6] = Frigate 0.2 % by volume, Compound A 20 g/ha

## COc1cc(OC)nc(NC(=O)NS(=O)(=O)c2ncccc2C(=O)N(C)C)n1 [Compound A, N-[(4,6-dimethoxypyrimidin-2-yl)aminocarbonyl]-3-dimethylaminocarbonyl-2-pyridinesulfonamide]
[1]; Frigate 0.1 % by volume
  inhibition at 30 g/ha: 80%
  inhibition at 40 g/ha: 90%
[1]; Frigate 0.2 % by volume
  inhibition at 30 g/ha: 85%
  inhibition at 40 g/ha: 90%
[1]; Frigate: No addition
  inhibition at 30 g/ha: 45%
  inhibition at 40 g/ha: 65%
[1]; [5]
  inhibition at 50 g/ha: 65%
[2]; Frigate 0.1 % by volume
  inhibition at 30 g/ha: 70%
  inhibition at 40 g/ha: 70%
[2]; [6]
  inhibition at 20 g/ha: 55%
[2]; Frigate 0.2 % by volume
  inhibition at 30 g/ha: 70%
  inhibition at 40 g/ha: 75%
[2]; Frigate: No addition
  inhibition at 30 g/ha: 30%
  inhibition at 40 g/ha: 55%
[2]; [5]
  inhibition at 50 g/ha: 70%
[3]; Echinochloa crus-galli, 648 h, Frigate 0.1 % by volume, Compound A 40 g/ha, read-out: Growth Inhibition (%) EC
  inhibition at 40 g/ha: 100%
[3]; Echinochloa crus-galli, 648 h, Frigate 0.2 % by volume, Compound A 20 g/ha, read-out: Growth Inhibition (%) EC
  inhibition at 20 g/ha: 100%
[3]; Echinochloa crus-galli, 648 h, Frigate 0.2 % by volume, read-out: Growth Inhibition (%) EC
  inhibition at 30 g/ha: 100%
[3]; Echinochloa crus-galli, 648 h, Frigate 0.2 % by volume, Compound A 40 g/ha, read-out: Growth Inhibition (%) EC
  inhibition at 40 g/ha: 100%
[3]; Echinochloa crus-galli, 648 h, Frigate: No addition, read-out: Growth Inhibition (%) EC
  inhibition at 30 g/ha: 65%
[3]; Echinochloa crus-galli, 648 h, Frigate: No addition, Compound A 40 g/ha, read-out: Growth Inhibition (%) EC
  inhibition at 40 g/ha: 75%
[3]; Frigate: No addition, Compound A 40 g/ha
  Growth Inhibition (%) EC: 60%
[4]; Frigate 0.1 % by volume
  inhibition at 30 g/ha: 95%
  inhibition at 40 g/ha: 90%
[4]; [6]
  inhibition at 20 g/ha: 85%
[4]; Frigate 0.2 % by volume
  inhibition at 30 g/ha: 90%
  inhibition at 40 g/ha: 95%
[4]; Frigate: No addition
  inhibition at 30 g/ha: 90%
  inhibition at 40 g/ha: 95%
[4]; [5]
  inhibition at 50 g/ha: 95%
